Test: Storage of aqueous solution or slurry for 60 days: HPLC analysis of components and appearance
Assay type: physicochemical
Details: keeping temperature 65° C.

In the case of `O=C([O-])C[C@@H](C(=O)[O-])N(CC(=O)[O-])CC(=O)[O-].[Na+].[Na+].[Na+].[Na+]` [Example 94, tetrasodium salt of (S)-aspartic acid-N,N-diacetic acid], the “Appearance after kept for 60 days” value was “Light yellow slurry”.
With `O=C([O-])C[C@H](NCCN[C@@H](CC(=O)[O-])C(=O)[O-])C(=O)[O-].[Na+].[Na+].[Na+].[Na+]` [Example 118, tetrasodium (S,S)-ethylenediamine-N,N′-disuccinate] the “Appearance after kept for 60 days” value was “Light yellow slurry”.

First: O=C([O-])C[C@@H](C(=O)[O-])N(CC(=O)[O-])CC(=O)[O-].[Na+].[Na+].[Na+].[Na+] [Example 94, tetrasodium salt of (S)-aspartic acid-N,N-diacetic acid]
Second: O=C([O-])C[C@H](NCCN[C@@H](CC(=O)[O-])C(=O)[O-])C(=O)[O-].[Na+].[Na+].[Na+].[Na+] [Example 118, tetrasodium (S,S)-ethylenediamine-N,N′-disuccinate]
The “Content of the compound of the formula [I] in aqueous solution after kept for 60 days” value (shortened to “Content of the compound of the formula”) of the first is lower: 64.5 wt. % for the first, 65.4 wt. % for the second.

Same assay, conditions: keeping temperature 70° C.

In the case of `O=C([O-])CN(CCS(=O)(=O)[O-])CC(=O)[O-].[Na+].[Na+].[Na+]` [Example 108, trisodium salt of taurine-N,N-diacetic acid], the “Appearance after kept for 60 days” value was “White slurry”.
With `CN(CC(=O)[O-])CC(=O)[O-].[Na+].[Na+]` [Example 109, disodium N-methyliminodiacetate] the “Appearance after kept for 60 days” value was “White slurry”.

First: O=C([O-])CN(CCS(=O)(=O)[O-])CC(=O)[O-].[Na+].[Na+].[Na+] [Example 108, trisodium salt of taurine-N,N-diacetic acid]
Second: CN(CC(=O)[O-])CC(=O)[O-].[Na+].[Na+] [Example 109, disodium N-methyliminodiacetate]
The “Content of the compound of the formula” value of the first is lower: 76.9 wt. % for the first, 78.5 wt. % for the second.

Same assay, conditions: keeping temperature 75° C.

In the case of `O=C([O-])C[C@H](NCC(O)CN[C@@H](CC(=O)[O-])C(=O)[O-])C(=O)[O-].[Cu+2].[Na+].[Na+]` [Example 128, copper disodium (S,S)-2-hydroxy-1,3-propanediamine-N,N′-disuccinate], the “Appearance after kept for 60 days” value was “Dark blue transparent aqueous solution”.

In the case of `O=C([O-])C[C@H](NCC(O)CN[C@@H](CC(=O)[O-])C(=O)[O-])C(=O)[O-].[Cu+2].[Na+].[Na+]` [Example 128, copper disodium (S,S)-2-hydroxy-1,3-propanediamine-N,N′-disuccinate], the “Content of the compound of the formula” value was 47.9 wt. %.

Test: Compression strength (hardening property) of powder stored under load for 2 months
Assay type: physicochemical
Details: Load 100 (table head [Kg]; text 100 g/cm^2); 20-30° C., relative humidity 40-70%
Procedure: Method for the Measurement of Compression Strength
(1) A test sample (500 g) is put in a poly-ethylene bag of 20 cm×20 cm in a room at a temperature of 20-30° C. and a relative humidity of 40-70%. The powder is levelled to an area of 20 cm×20 cm and air is forced out of the bag, and, then, the bag is sealed. This bag is further put in a kraft bag and this kraft bag is sealed.
(2) The kraft bag of (1) is placed horizontally on a flat plate and a plate is put thereon. […]
(3) With keeping the temperature of 20-30° C. and the relative humidity of 40-70%, the test sample is taken out after lapse of 2 months from the starting of application of load. Several test pieces (4 cm long×4 cm broad×2 cm high) are cut out from the sample.

Going from `O=C(O)C[C@H](NCC(O)CN[C@@H](CC(=O)O)C(=O)O)C(=O)O` [Example 70, (S,S)-2-hydroxy-1,3-propanediaminedisuccinic acid] to `O=C(O)C[C@H](NCCCN[C@@H](CC(=O)O)C(=O)O)C(=O)O` [compound 24, (S,S)-1,3-propanediaminedisuccinic acid, reference compound], the “Compression strength after stored for 2 months” value (from here on “Compression strength”) rises from 0.8 Kg/cm^2 to 2.8 Kg/cm^2.

Compared with `O=C(O)CN(CCS(=O)(=O)O)CC(=O)O` [Example 37, taurine-N,N-diacetic acid], `O=C([O-])C[C@H](NCCN[C@@H](CC(=O)[O-])C(=O)[O-])C(=O)[O-].[Na+].[Na+].[Na+].[Na+]` [compound 17, tetrasodium (S,S)-ethylenediaminedisuccinate, reference compound] is higher in “Compression strength” value: 1.0 Kg/cm^2 for the first, 2.9 Kg/cm^2 for the second.

First: O=C([O-])CN(CC(=O)[O-])c1ccccc1C(=O)[O-].[Na+].[Na+].[Na+] [Example 30, trisodium salt of anthranilic acid-N,N-diacetic acid]
Second: O=C(O)C[C@H](NCCN[C@@H](CC(=O)O)C(=O)O)C(=O)O [compound 22, (S,S)-ethylenediaminedisuccinic acid, reference compound]
The “Compression strength” value of the first is lower: 1.2 Kg/cm^2 for the first, 2.5 Kg/cm^2 for the second.

First: C[C@@H](C(=O)O)N(CC(=O)O)CC(=O)O [Example 20, (S)-α-alanine-N,N-diacetic acid]
Second: O=C(O)CN(CC(=O)O)c1ccccc1C(=O)O [Example 39, anthranilic acid-N,N-diacetic acid]
The “Compression strength” value of the first is lower: 1.0 Kg/cm^2 for the first, 1.2 Kg/cm^2 for the second.

First: O=C(O)CN(CCS(=O)(=O)O)CC(=O)O [compound 12, taurine-N,N-diacetic acid, reference compound]
Second: C[C@@H](C(=O)[O-])N(CC(=O)[O-])CC(=O)[O-].[Na+].[Na+].[Na+] [compound 4, trisodium salt of (S)-α-alanine-N,N-diacetic acid, reference compound]
The “Compression strength” value of the first is higher: 3.3 Kg/cm^2 for the first, 2.8 Kg/cm^2 for the second.

Going from `O=C(O)C[C@@H](C(=O)O)N(CC(=O)O)CC(=O)O` [Example 19, (S)-aspartic acid-N,N-diacetic acid] to `O=C([O-])CC(NCCNC(CC(=O)[O-])C(=O)[O-])C(=O)[O-].[Na+].[Na+].[Na+].[Na+]` (centres unmarked) [compound 16, tetrasodium ethylenediaminedisuccinate, reference compound], the “Compression strength” value rises from 1.1 Kg/cm^2 to 2.8 Kg/cm^2.

Compared with “iron salt of anthranilic acid-N,N-diacetic acid [compound 15, reference compound]”, `C[C@@H](C(=O)[O-])N(CC(=O)[O-])CC(=O)[O-].[Na+].[Na+].[Na+]` [Example 8, trisodium salt of (S)-α-alanine-N,N-diacetic acid] is lower in “Compression strength” value: 2.5 Kg/cm^2 for the first, 1.0 Kg/cm^2 for the second.

For `O=C([O-])CN[C@@H](CC(=O)[O-])C(=O)[O-].[Na+].[Na+].[Na+]` [Example 5, trisodium salt of (S)-aspartic acid-N-monoacetic acid], the “Compression strength” value was 1.2 Kg/cm^2.

Same assay, conditions: Load 200 (table head [Kg]; text 200 g/cm^2); 20-30° C., relative humidity 40-70%

Compared with `O=C(O)C[C@H](NCCN[C@@H](CC(=O)O)C(=O)O)C(=O)O` [Example 62, (S,S)-ethylenediaminedisuccinic acid], `O=C(O)C[C@H](NCCCN[C@@H](CC(=O)O)C(=O)O)C(=O)O` [Example 64, (S,S)-1,3-propanediaminedisuccinic acid] is lower in “Compression strength” value: 1.0 Kg/cm^2 for the first, 0.9 Kg/cm^2 for the second.

Compared with `O=C([O-])CC(NCCCNC(CC(=O)[O-])C(=O)[O-])C(=O)[O-].[Na+].[Na+].[Na+].[Na+]` (centres unmarked) [Example 48, tetrasodium 1,3-propanediaminedisuccinate], `O=C([O-])CC(NCCNC(CC(=O)[O-])C(=O)[O-])C(=O)[O-].[Cu+2].[Na+].[Na+]` (centres unmarked) [Example 77, copper disodium ethylenediaminedisuccinate] is higher in “Compression strength” value: 1.0 Kg/cm^2 for the first, 1.2 Kg/cm^2 for the second.

Going from `C[C@@H](C(=O)O)N(CC(=O)O)CC(=O)O` [Example 16, (S)-α-alanine-N,N-diacetic acid] to `O=C(O)CN(CC(=O)O)c1ccccc1C(=O)O` [Example 36, anthranilic acid-N,N-diacetic acid], the “Compression strength” value rises from 0.8 Kg/cm^2 to 0.9 Kg/cm^2.

Going from `O=C([O-])CN(CC(=O)[O-])c1ccccc1C(=O)[O-].[Fe+3]` [Example 43, iron salt of anthranilic acid-N,N-diacetic acid] to `CN(CC(=O)[O-])CC(=O)[O-].[Na+].[Na+]` [Example 26, disodium N-methyliminodiacetate], the “Compression strength” value rises from 0.9 Kg/cm^2 to 1.2 Kg/cm^2.

First: O=C([O-])C[C@H](NCCN[C@@H](CC(=O)[O-])C(=O)[O-])C(=O)[O-].[Fe+3].[NH4+] [Example 79, iron ammonium (S,S)-ethylenediaminedisuccinate]
Second: O=C(O)CC(NCCCNC(CC(=O)O)C(=O)O)C(=O)O (centres unmarked) [Example 63, 1,3-propanediaminedisuccinic acid]
The “Compression strength” value of the first is lower: 0.9 Kg/cm^2 for the first, 1.1 Kg/cm^2 for the second.

Same assay, conditions: Load 300 (table head [Kg]; text 300 g/cm^2); 20-30° C., relative humidity 40-70%

First: O=C([O-])CN(CCS(=O)(=O)[O-])CC(=O)[O-].[Na+].[Na+].[Na+] [Example 31, trisodium salt of taurine-N,N-diacetic acid]
Second: O=C(O)CN[C@@H](CC(=O)O)C(=O)O [Example 21, (S)-aspartic acid-N-monoacetic acid]
The “Compression strength” value of the first is higher: 1.0 Kg/cm^2 for the first, 0.8 Kg/cm^2 for the second.

Compared with `C[C@@H](C(=O)[O-])N(CC(=O)[O-])CC(=O)[O-].[Na+].[Na+].[Na+]` [Example 12, trisodium salt of (S)-α-alanine-N,N-diacetic acid], “iron salt of anthranilic acid-N,N-diacetic acid [Example 45]” is lower in “Compression strength” value: 0.9 Kg/cm^2 for the first, 0.8 Kg/cm^2 for the second.

First: O=C([O-])CN(CC(=O)[O-])c1ccccc1C(=O)[O-].[Na+].[Na+].[Na+] [Example 33, trisodium salt of anthranilic acid-N,N-diacetic acid]
Second: O=C(O)C[C@@H](C(=O)O)N(CC(=O)O)CC(=O)O [Example 23, (S)-aspartic acid-N,N-diacetic acid]
The “Compression strength” value of the first is lower: 0.9 Kg/cm^2 for the first, 1.0 Kg/cm^2 for the second.

`O=C([O-])C[C@H](NCC(O)CN[C@@H](CC(=O)[O-])C(=O)[O-])C(=O)[O-].[Na+].[Na+].[Na+].[Na+]` [Example 60, tetrasodium (S,S)-2-hydroxy-1,3-propanediaminedisuccinate] and `O=C(O)C[C@H](NCCCN[C@@H](CC(=O)O)C(=O)O)C(=O)O` [Example 74, (S,S)-1,3-propanediaminedisuccinic acid] are the same in “Compression strength” value: 1.2 Kg/cm^2 for the first, 1.2 Kg/cm^2 for the second.

In the case of `O=C([O-])C[C@@H](C(=O)[O-])N(CC(=O)[O-])CC(=O)[O-].[Na+].[Na+].[Na+].[Na+]` [Example 11, tetrasodium salt of (S)-aspartic acid-N,N-diacetic acid], the “Compression strength” value was 0.8 Kg/cm^2.
